According to article PMC9735965, “Recovery of Gallium-68 and Zinc from HNO3-Based Solution by Liquid–Liquid Extraction with Arylamino Phosphonates” (Molecules, 2022):

Experiment: Aqueous solubility of extractants by qNMR
Assay type: physicochemical
Details: water, thermodynamic from solid; experimentally determined; in D2O by qNMR
Description: A 1 mL volumetric flask was charged with 10–15 mg of the extractant and 1 mL of D2O. The resulting suspension was sonicated for 30 min and the content was centrifuged, filtered through a 0.45 µm syringe filter, and transferred into an NMR tube. A sealed capillary containing an external calibrant (acetanilide for ^1H qNMR and triphenylphosphine for ^31P qNMR) was inserted into the NMR tube and the solubility of extractants 1–9 was determined from their ^1H or ^31P NMR spectra using the formula: Cx = (Ix/Ical) × (Ncal/Nx) × Ccal, where I, N, and C are the integral area, number of nuclei, and the concentration of the extractant (x) and the calibrant (cal), respectively.

solubility at 30 min [µM] | Structure (SMILES)
1730 | COCCOCCOP(=O)(O)C(Nc1cc(C(F)(F)F)cc(C(F)(F)F)c1)c1cc(C(F)(F)F)cc(C(F)(F)F)c1 (stereo not drawn) [Extractant 9]
1600 | COCCOCCOP(=O)(O)C(Nc1cc(C(F)(F)F)cc(C(F)(F)F)c1)c1ccc(C(F)(F)F)cc1 (stereo not drawn) [Extractant 8]
80 | CCCCCCCCOP(=O)(O)C(Nc1cc(C(F)(F)F)cc(C(F)(F)F)c1)c1ccc(C(C)(C)C)cc1 (stereo not drawn) [Extractant 7]
250 | CCCCCCCCOP(=O)(O)C(Nc1ccc(OC)cc1)c1cccs1 (stereo not drawn) [Extractant 3]
40 | CCCCCCCCOP(=O)(O)C(Nc1ccc(OC)cc1)c1ccc(C(F)(F)F)cc1 (stereo not drawn) [Extractant 5]
220 | CCCCCCCCOP(=O)(O)C(Nc1ccccc1)c1ccccc1 (stereo not drawn) [Extractant 1, reference compound]
80 | CCCCCCCCOP(=O)(O)C(Nc1ccc(C(F)(F)F)cc1)c1ccc(C(C)(C)C)cc1 (stereo not drawn) [Extractant 4]

Structure (SMILES) | solubility at 30 min [µM]
COP(=O)(O)C(Nc1ccc(C(F)(F)F)cc1)c1cc(C(F)(F)F)cc(C(F)(F)F)c1 (stereo not drawn) [Extractant 6] | 2600
COP(=O)(O)C(Nc1ccc(C(C)(C)C)cc1)c1ccc(C(C)(C)C)cc1 (stereo not drawn) [Extractant 2] | 100
